In US20250206732A1, “COMPOUNDS AND METHODS FOR THE TARGETED DEGRADATION OF KRAS” (Arvinas Operations, Inc., priority 2022, published 2025) one finds Dmax and DC50 data, which are given here for 11 compounds.

In one assay the target is T1, AsPC-1 HiBiT-KRASG12D (Homo sapiens, UniProt P01116, G12D).
T1 construct: insert the HiBiT tag onto the N-terminus of one or more of the endogenous KRAS alleles; endogenous in cells; host or cells: AsPC-1 (ATCC CRL-1682), CRISPR-Cas9 knock-in clone, one tagged allele
T1 sequence (P01116 1-188 isoform P01116-2 G12D): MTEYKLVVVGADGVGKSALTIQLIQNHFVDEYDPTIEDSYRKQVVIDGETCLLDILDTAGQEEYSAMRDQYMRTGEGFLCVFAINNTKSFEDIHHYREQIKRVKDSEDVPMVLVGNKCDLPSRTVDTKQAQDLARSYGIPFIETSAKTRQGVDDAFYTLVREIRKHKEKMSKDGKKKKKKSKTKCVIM
Put plainly: HiBiT degradation assay (G12D), AsPC-1 HiBiT-KRASG12D cells. Type of assay: cell-based. The note with it: 24 hours treatment; for Dmax: ASPC1, AsPC-1 HiBiT-KRASG12D cells, maximum degradation observed; for DC50: AsPC-1 HiBiT-KRASG12D cells, HiBiT luminescence. Summed up:
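24 h cmpd treatment, 37° C/5% CO2, AsPC-1 HiBiT-KRASG12D clone (CRISPR N-term tag). Alamar blue 1×, 4 h, fluorescence. PBS wash, Nano-Glo HiBiT lytic reagent, 45 min RT, luminescence. Triplicates.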
In general terms: With HiBiT, luminescence reflects the tagged protein that the partner subunit can reach.

The next assay addresses T2, SW1573 HiBiT-KRASG12C (Homo sapiens, UniProt P01116, G12C).
T2 construct: expressed in transfected cells
Put plainly: HiBiT degradation assay (G12C), SW1573 HiBiT-KRASG12C cells.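 For DC50: Letter grades: C is 1000 to 3000 nM and D is above 3000 nM.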 It counts as cell-based. The note with it: 24 hours treatment; for DC50: HiBiT luminescence; for Dmax: maximum degradation observed. The method in brief:
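SW1573 cells expressing N-terminal HiBiT-KRASG12C (clone E6) treated 24 h at 37 °C with 10 μM to 508 pM compound in 0.5% DMSO, triplicate. HiBiT lytic luminescence normalized to DMSO, 4-parameter fit gives DC50 and Dmax; points with ≥50% alamar blue viability loss excluded.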

T2 sequence (P01116 1-188 isoform P01116-2 G12C): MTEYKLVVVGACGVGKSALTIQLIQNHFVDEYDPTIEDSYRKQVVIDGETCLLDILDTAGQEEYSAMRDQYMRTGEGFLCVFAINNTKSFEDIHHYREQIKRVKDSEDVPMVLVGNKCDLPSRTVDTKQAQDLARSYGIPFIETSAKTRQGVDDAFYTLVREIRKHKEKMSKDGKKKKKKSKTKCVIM

On to `CCc1cccc2cccc(-c3ncc4c(N5CC6CCC(C5)N6)nc(OC[C@]56CCCN5[C@@H](COC(=O)N5CCN(c7cc([C@H](C(=O)N8C[C@H](O)C[C@H]8C(=O)N[C@@H](C)c8ccc(-c9scnc9C)cc8)C(C)C)on7)CC5)CC6)nc4c3F)c12` [Compound 34, [(3R,7aR)-7a-{[(4-{3,8-diazabicyclo[3.2.1]octan-3-yl}-7-(8-ethylnaphthalen-1-yl)-8-fluoropyrido[4,3-d]pyrimidin-2-yl)oxy]methyl}-hexahydro-1H-pyrrolizin-3-yl]methyl 4-{5-[(2R)-1-[(2S,4R)-4-hydroxy-2-{[(1S)-1-[4-(4-methyl-1,3-thiazol-5-yl)phenyl]ethyl]carbamoyl}pyrrolidin-1-yl]-3-methyl-1-oxobutan-2-yl]-1,2-oxazol-3-yl}piperazine-1-carboxylate], for which, on AsPC-1 HiBiT-KRASG12D, the greatest degradation seen (Dmax) was in the range of 80 to 100% and the DC50 is below 600 nM. This compound yielded a DC50 on SW1573 HiBiT-KRASG12C above 3 µM.

As to `CCc1cccc2cc(O)cc(-c3ncc4c(N5CCCCCC5)nc(OC[C@]56CCCN5[C@@H](COC(=O)N5CCN(c7cc([C@H](C(=O)N8C[C@H](O)C[C@H]8C(=O)N[C@@H](C)c8ccc(-c9scnc9C)cc8)C(C)C)on7)CC5)CC6)nc4c3F)c12` [Compound 45, [(3R,7aR)-7a-({[4-(azepan-1-yl)-7-(8-ethyl-3-hydroxynaphthalen-1-yl)-8-fluoropyrido[4,3-d]pyrimidin-2-yl]oxy}methyl)-hexahydro-1H-pyrrolizin-3-yl]methyl 4-{5-[(2R)-1-[(2S,4R)-4-hydroxy-2-{[(1S)-1-[4-(4-methyl-1,3-thiazol-5-yl)phenyl]ethyl]carbamoyl}pyrrolidin-1-yl]-3-methyl-1-oxobutan-2-yl]-1,2-oxazol-3-yl}piperazine-1-carboxylate], on AsPC-1 HiBiT-KRASG12D, the Dmax is 80 to 100% and the DC50 was below 600 nM. Moreover, at SW1573 HiBiT-KRASG12C, the half-maximal degradation concentration (DC50) is at most 0.6 µM and the Dmax fell in the range of 60 to 80%.

As for `CCc1cccc2cc(O)cc(-c3ncc4c(N5CCCCCC5)nc(OC[C@]56CCCN5[C@@H](COC(=O)N5CCN(c7cc([C@@H](C(=O)N8C[C@H](O)C[C@H]8C(=O)N[C@@H](C)c8ccc(-c9scnc9C)cc8)C(C)C)on7)CC5)CC6)nc4c3F)c12` [Compound 46, [(3R,7aR)-7a-({[4-(azepan-1-yl)-7-(8-ethyl-3-hydroxynaphthalen-1-yl)-8-fluoropyrido[4,3-d]pyrimidin-2-yl]oxy}methyl)-hexahydro-1H-pyrrolizin-3-yl]methyl 4-{5-[(2S)-1-[(2S,4R)-4-hydroxy-2-{[(1S)-1-[4-(4-methyl-1,3-thiazol-5-yl)phenyl]ethyl]carbamoyl}pyrrolidin-1-yl]-3-methyl-1-oxobutan-2-yl]-1,2-oxazol-3-yl}piperazine-1-carboxylate], the DC50 on AsPC-1 HiBiT-KRASG12D is above 3000 nM; on SW1573 HiBiT-KRASG12C, above 3 µM.

Take `Cc1ncsc1-c1ccc([C@H](C)NC(=O)[C@@H]2C[C@@H](O)CN2C(=O)[C@@H](NC(=O)COCC2CCN(CCOc3nc(N4CC5CCC(C4)N5)c4cnc(-c5cc(O)cc6ccccc56)c(F)c4n3)CC2)C(C)(C)C)cc1` [Compound 23, (2S,4R)-1-[(2S)-2-[[2-[[1-[2-[4-(3,8-diazabicyclo[3.2.1]octan-3-yl)-8-fluoro-7-(3-hydroxy-1-naphthyl)pyrido[4,3-d]pyrimidin-2-yl]oxyethyl]-4-piperidyl]methoxy]acetyl]amino]-3,3-dimethyl-butanoyl]-4-hydroxy-N-[(1S)-1-[4-(4-methylthiazol-5-yl)phenyl]ethyl]pyrrolidine-2-carboxamide]: the Dmax on AsPC-1 HiBiT-KRASG12D lay in the range of 20 to 60%. Further, the DC50 on AsPC-1 HiBiT-KRASG12D is 1000 to 3000 nM; on SW1573 HiBiT-KRASG12C, above 3 µM.

As for `CCc1cccc2cc(O)cc(-c3ncc4c(N5CC6CCC(C5)N6)nc(OC[C@]56CCCN5[C@@H](COC(=O)N5CCN(c7cc([C@@H](C(=O)N8C[C@H](O)C[C@H]8C(=O)N[C@@H](C)c8ccc(-c9scnc9C)cc8)C(C)C)on7)CC5)CC6)nc4c3F)c12` [Compound 6], on AsPC-1 HiBiT-KRASG12D, the Dmax was below 20% and the DC50 is 1000 to 3000 nM. The DC50 at SW1573 HiBiT-KRASG12C is above 3 µM.

For `CCc1cccc2cc(O)cc(-c3ncc4c(N5CC6CCC(C5)N6)nc(OCCN5CCC(COCC(=O)N[C@H](C(=O)N6C[C@@H](O)C[C@H]6C(=O)N[C@@H](C)c6ccc(-c7scnc7C)cc6)C(C)(C)C)CC5)nc4c3F)c12` [Compound 10, (2S,4S)-1-[(2S)-2-[[2-[[1-[2-[4-(3,8-diazabicyclo[3.2.1]octan-3-yl)-7-(8-ethyl-3-hydroxy-1-naphthyl)-8-fluoro-pyrido[4,3-d]pyrimidin-2-yl]oxyethyl]-4-piperidyl]methoxy]acetyl]amino]-3,3-dimethyl-butanoyl]-4-hydroxy-N-[(1S)-1-[4-(4-methylthiazol-5-yl)phenyl]ethyl]pyrrolidine-2-carboxamide], the figures for the DC50 at AsPC-1 HiBiT-KRASG12D and at SW1573 HiBiT-KRASG12C were above 3000 nM and above 3 µM, respectively.

`C#Cc1cccc2cc(O)cc(-c3ncc4c(N5CC6CCC(C6)C5)nc(OCCN5CCC(COc6cc([C@H](C(=O)N7C[C@H](O)C[C@H]7C(=O)N[C@@H](C)c7ccc(-c8scnc8C)cc7)C(C)C)on6)CC5)nc4c3F)c12` [Compound 18, (2S,4R)-1-[(2R)-2-[3-[[1-[2-[4-(3-azabicyclo[3.2.1]octan-3-yl)-7-(8-ethynyl-3-hydroxy-1-naphthyl)-8-fluoro-pyrido[4,3-d]pyrimidin-2-yl]oxyethyl]-4-piperidyl]methoxy]isoxazol-5-yl]-3-methyl-butanoyl]-4-hydroxy-N-[(1S)-1-[4-(4-methylthiazol-5-yl)phenyl]ethyl]pyrrolidine-2-carboxamide]: the values for the DC50 at AsPC-1 HiBiT-KRASG12D and at SW1573 HiBiT-KRASG12C were above 3000 nM and above 3 µM, respectively.

On AsPC-1 HiBiT-KRASG12D, `CCc1cccc2cc(O)cc(-c3ncc4c(N5CC6CCC(C5)N6)nc(OC[C@@]56CCCN5[C@H](COCC(=O)N[C@H](C(=O)N5C[C@H](O)C[C@H]5C(=O)N[C@@H](C)c5ccc(-c7scnc7C)cc5)C(C)(C)C)CC6)nc4c3F)c12` [Compound 2, (2S,4R)-1-[(2S)-2-(2-{[(3S,7aS)-7a-{[(4-{3,8-diazabicyclo[3.2.1]octan-3-yl}-7-(8-ethyl-3-hydroxynaphthalen-1-yl)-8-fluoropyrido[4,3-d]pyrimidin-2-yl)oxy]methyl}-hexahydro-1H-pyrrolizin-3-yl]methoxy}acetamido)-3,3-dimethylbutanoyl]-4-hydroxy-N-[(1S)-1-[4-(4-methyl-1,3-thiazol-5-yl)phenyl]ethyl]pyrrolidine-2-carboxamide] displayed a Dmax of 80 to 100% and a DC50 below 600 nM. For the same compound, at SW1573 HiBiT-KRASG12C, the DC50 was in the range of 1 to 3 µM and the Dmax lay within 20 to 60%.

In the case of `CCc1cccc2cc(O)cc(-c3ncc4c(N5CC6CCC(C5)N6)nc(OC[C@]56CCCN5[C@@H](COc5cc(C(C(=O)N7C[C@H](O)C[C@H]7C(=O)N[C@@H](C)c7ccc(-c8scnc8C)cc7)C(C)C)on5)CC6)nc4c3F)c12` (stereo partly drawn) [Compound 38, (2S,4R)-1-[2-(3-{[(3R,7aR)-7a-{[(4-{3,8-diazabicyclo[3.2.1]octan-3-yl}-7-(8-ethyl-3-hydroxynaphthalen-1-yl)-8-fluoropyrido[4,3-d]pyrimidin-2-yl)oxy]methyl}-hexahydro-1H-pyrrolizin-3-yl]methoxy}-1,2-oxazol-5-yl)-3-methylbutanoyl]-4-hydroxy-N-[(1S)-1-[4-(4-methyl-1,3-thiazol-5-yl)phenyl]ethyl]pyrrolidine-2-carboxamide], the Dmax at AsPC-1 HiBiT-KRASG12D is 80 to 100%; at SW1573 HiBiT-KRASG12C, 20 to 60%. Moreover, the DC50 on AsPC-1 HiBiT-KRASG12D was below 600 nM; on SW1573 HiBiT-KRASG12C it was 1 to 3 µM.

At AsPC-1 HiBiT-KRASG12D, `CCc1cccc2cc(O)cc(-c3ncc4c(N5CC6CCC(C5)N6)nc(OCCN5CCC(COC6(C(=O)N[C@H](C(=O)N7C[C@H](O)C[C@H]7C(=O)N[C@@H](C)c7ccc(-c8scnc8C)cc7)C(C)(C)C)CC6)CC5)nc4c3F)c12` [Compound 9, (2S,4R)-1-[(2S)-2-[[1-[[1-[2-[4-(3,8-diazabicyclo[3.2.1]octan-3-yl)-7-(8-ethyl-3-hydroxy-1-naphthyl)-8-fluoro-pyrido[4,3-d]pyrimidin-2-yl]oxyethyl]-4-piperidyl]methoxy]cyclopropanecarbonyl]amino]-3,3-dimethyl-butanoyl]-4-hydroxy-N-[(1S)-1-[4-(4-methylthiazol-5-yl)phenyl]ethyl]pyrrolidine-2-carboxamide] had a Dmax of 80 to 100% and a 50% degradation concentration (DC50) below 600 nM. The DC50 on SW1573 HiBiT-KRASG12C is above 3 µM.

As for `Cc1ccc2[nH]ncc2c1-c1ncc2c(N3CC4CCC(C3)N4)nc(OCCN3CCC(COc4cc([C@H](C(=O)N5C[C@H](O)C[C@H]5C(=O)N[C@@H](C)c5ccc(-c6scnc6C)cc5)C(C)C)on4)CC3)nc2c1F` [Compound 3, (2S,4R)-1-[(2R)-2-[3-[[1-[2-[4-(3,8-diazabicyclo[3.2.1]octan-3-yl)-8-fluoro-7-(5-methyl-1H-indazol-4-yl)pyrido[4,3-d]pyrimidin-2-yl]oxyethyl]-4-piperidyl]methoxy]isoxazol-5-yl]-3-methyl-butanoyl]-4-hydroxy-N-[(1S)-1-[4-(4-methylthiazol-5-yl)phenyl]ethyl]pyrrolidine-2-carboxamide], the DC50 is above 3000 nM on AsPC-1 HiBiT-KRASG12D and above 3 µM on SW1573 HiBiT-KRASG12C.

As a reminder, the Dmax is the greatest extent of degradation seen. Low readings indicate shallow degradation, high ones deep degradation. As a reminder, the DC50 is the midpoint of the concentration-degradation curve. A lower DC50 goes with a more potent degrader.
